Results on three compounds are retold here after ChEMBL document CHEMBL3046037, “Genetic analysis and molecular characterisation of laboratory and field mutants of Botryotinia fuckeliana (Botrytis cinerea) resistant to QoI fungicides” (Pest Manag Sci, 2012).

By EC50 is commonly meant the concentration needed to bring the measured effect to its halfway point. The term MIC denotes the least concentration at which growth counts as inhibited.

In brackets after ≈: the same amount, converted by molar mass. Activity calls are given as the source filed them. The rule behind the calls is not given here.

Test [1] deals with Botrytis cinerea. Put plainly: Antifungal activity against Botryotinia fuckeliana SAS405 assessed as inhibition of colony growth. In kind it is functional, organism-based.
Test [2] has as its system Botrytis cinerea. Put plainly: Resistance index, ratio of EC50 for QoI fungicide-resistant Botryotinia fuckeliana field isolates expressing cytb G143A mutant gene to EC50 for Botryotinia fuckeliana SAS56. It counts as functional.
Test [3] relates to Botrytis cinerea. Put plainly: Resistance index, ratio of EC50 for QoI fungicide-resistant Botryotinia fuckeliana lab isolates to EC50 for Botryotinia fuckeliana SAS56. In kind it is functional.
Test [4] concerns Botrytis cinerea. Put plainly: Antifungal activity against QoI fungicide-resistant Botryotinia fuckeliana field isolates expressing cytb G143A mutant gene assessed as inhibition of colony growth. It counts as functional, organism-based.
Test [5] relates to Botrytis cinerea. The test can be described thus: Antifungal activity against Botryotinia fuckeliana SAS56 assessed as complete inhibition of colony growth at […]. It counts as functional, organism-based.
For test [6], the system named is Botrytis cinerea. The test can be described thus: Antifungal activity against Botryotinia fuckeliana SAS56 assessed as inhibition of colony growth. It counts as functional, organism-based.
In test [7] the test system is Botrytis cinerea. The test can be described thus: Antifungal activity against QoI fungicide-resistant Botryotinia fuckeliana lab isolates assessed as inhibition of colony growth. In kind it is functional, organism-based.
The test system of test [8] is Botrytis cinerea. The test can be described thus: Resistance index, ratio of EC50 for QoI fungicide-resistant Botryotinia fuckeliana lab isolates to EC50 for Botryotinia fuckeliana SAS405. In kind it is functional.
Test [9] relates to Botrytis cinerea. Put plainly: Resistance index, ratio of EC50 for QoI fungicide-resistant Botryotinia fuckeliana field isolates expressing cytb G143A mutant gene to EC50 for Botryotinia fuckeliana SAS405. It counts as functional.
Test [10] deals with Botrytis cinerea. Put plainly: Antifungal activity against Botryotinia fuckeliana SAS56 assessed as complete inhibition of colony growth at 3 mg/ml. It counts as functional, organism-based.

For the compound `CO/N=C(\C(=O)OC)c1ccccc1CO/N=C(\C)c1cccc(C(F)(F)F)c1`, the EC50 was 0.01 µg/mL (≈ 0.0245 µM) in the test with Botrytis cinerea [1], over 100 µg/mL in the test on Botrytis cinerea [4], under 0.01 µg/mL with Botrytis cinerea [6] and over 100 µg/mL in the test on Botrytis cinerea [7]. Moreover, the MIC in the test on Botrytis cinerea [1] and in the test on Botrytis cinerea [6] was 1 µg/mL (≈ 2.45 µM) in each case. The “Ratio EC50” value with Botrytis cinerea [2], in the test with Botrytis cinerea [3], in the test on Botrytis cinerea [8] and with Botrytis cinerea [9] was over 1000 each time. For the same compound, in the test with Botrytis cinerea [5], the “growth inhibition (GI)” value was “Active”.
Consider `CO/N=C(/C(=O)OC)c1ccccc1COc1ccccc1C` [KRESOXIM-METHYL], for which the EC50 with Botrytis cinerea [1] and in the test on Botrytis cinerea [6] was 0.01 µg/mL (≈ 0.0319 µM) each time. The “growth inhibition (GI)” value with Botrytis cinerea [10] is “Active”.
For `CO/C=C(/C(=O)OC)c1ccccc1Oc1cc(Oc2ccccc2C#N)ncn1` [AZOXYSTROBIN], the EC50 in the test on Botrytis cinerea [1] and with Botrytis cinerea [6] was 0.1 µg/mL (≈ 0.248 µM) each time. Besides, the “growth inhibition (GI)” value with Botrytis cinerea [10] is “Active”.
